Reference: patent US9353154B2, “Compositions for labeling nerves and methods of use” (Avelas Biosciences, Inc., priority 2010, dated 2016)
“Also recorded” adds a separate entry of the source. Where a SMILES comes first, the peptide text is derived from it. The star is where a group is joined. 6FAM = O=C1OC2(c3ccc(O)cc3Oc3cc(O)ccc32)c2cc(C(=O)*)ccc21

Columns and labels:
[1] = Stability of peptide A in saline (control); type: physicochemical; settings: 48 h
Procedure: (§1) 6-Carboxylfluorescein (6-FAM) labeled peptide A (1 mg) was added to freshly prepared mouse plasma (0.5 mL). The resulting solution was gently mixed and incubated at 37° C. The reaction was followed by an LC-MS at different time points. An analogous procedure was done at room temperature with 1-5 mg of Peptide A.
The peak was isolated by preparative RP-HPLC. […] As a control, peptide A is stable in saline after 48 h (Chart E&F, FIG. 5).

[2] = Plasma digestion of Peptide A followed by LC-MS; type: in vitro ADME; settings: mouse plasma, 37° C.
Procedure: as §1

mouse skin = experiment: In vivo skin fluorescence (full body imaging, skin staining activity); settings: 150 nmol via tail vein injection, imaging at 2 h
Procedure: (§2) Fluorescence contrast activity of was assessed using male euthymic and immunocompetent hairless SKH1-E mice (25-35 grams). On the day of study, each involved mouse was weighed and restrained using the rotating tail injector for intravenous (tail vein) injection in conscious animal.
(§3) Test agents were injected intravenously into the tail vein (30-150 nmol in 0.1 mL/mouse). The animals were returned to assigned cage and kept under controlled environmental conditions before being examined for sciatic nerve fluorescence labeling 2 hours later.
(§4) Two hours after the intravenous injection, the mice were anesthetized with a mixture of ketamine HCl/Xylazine HCl solution administered intraperitoneally. The deeply anesthetized mice were transferred on the piece of cork for blunt dissection of sciatic nerve.
Full body imaging of deeply anesthetized mouse with open surgical wound/exposed sciatic nerve was then performed using a computerized imaging system with appropriate excitation/emission filters. The full body imaging was used to calculate the skin staining activity of the visualization agents.

mouse sciatic nerve = experiment: In vivo sciatic nerve fluorescence contrast (nerve vs surrounding muscle); settings: 150 nmol via tail vein injection, imaging at 2 h
Procedure: as §2, §3, §4
After the full body imaging, the deeply anesthetized mice were transferred on the computerized fluorescent stereomicroscope equipped with appropriate excitation/emission filters to examine and record the fluorescence specific to sciatic nerve and compare it to that documented on the surrounding tissues such as muscle. All captured images were examined and analyzed using Image J to generate quantitative data.
For each experimental group, fluorescence intensities from each mouse sciatic nerve were averaged to generate the Mean±SEM value. The background was defined as the average fluorescence intensities of the muscle tissue surrounding the sciatic nerve. The fluorescence contrast (C) is defined and calculated as C=(IN−IB)/IB, where IN is the average nerve fluorescence intensity and IB is the average proximal background intensity. Constrast>0.4 is considered good.

Row | stability in saline [1] | digested products in plasma ([2]; 3 h) | digestion in plasma (HPLC chromatogram, 220 nm absorbance) ([2]; 20 h) | digestion in plasma (HPLC chromatogram, 220 nm absorbance) ([2]; 48 h) | major truncated component after plasma digestion ([2]; peak isolated by preparative RP-HPLC) | Compound | skin fluorescence compared to peptide A (mouse skin) | skin fluorescence compared to peptide A (mouse skin; listed as peptide 3) | fluorescence nerve contrast (mouse sciatic nerve) | fluorescence nerve contrast relative to peptide A (mouse sciatic nerve) | fluorescence nerve contrast (mouse sciatic nerve; listed as peptide 3)
1 | stable | No detectable digested products | a new peak appeared | a new peak appeared | C-terminus lysine labeled with 6-FAM | CC(=O)N[C@@H](CO)C(=O)N[C@@H](Cc1c[nH]cn1)C(=O)N[C@@H](CO)C(=O)N[C@@H](CC(N)=O)C(=O)N[C@H](C(=O)N[C@@H](CCC(N)=O)C(=O)N[C@H](C(=O)N[C@@H](CC(C)C)C(=O)N[C@@H](C)C(=O)N[C@@H](CCCCN)C(=O)N[C@@H](C)C(=O)N1CCC[C@H]1C(=O)N[C@@H](CCC(=O)O)C(=O)N[C@@H](Cc1c[nH]cn1)C(=O)N[C@H](C(=O)NCC(=O)N[C@@H](CCCCNC(=O)c1ccc2c(c1)C1(OC2=O)c2ccc(O)cc2Oc2cc(O)ccc21)C(N)=O)[C@@H](C)O)[C@@H](C)O)[C@@H](C)O [Peptide A, Ac-Ser-His-Ser-Asn-Thr-Gln-Thr-Leu-Ala-Lys-Ala-Pro-Glu-His-Thr-Gly-Lys(6FAM)-NH2] (Ac-SHSNTQTLAKAPEHTGK(6FAM)-NH2) | – | – | – | – | –
2 | – | – | – | – | – | Ac-Glu-His-Thr-Gly-Lys(6FAM)-NH2 (Ac-EHTGK(6FAM)-NH2; SMILES CC(=O)N[C@@H](CCC(=O)O)C(=O)N[C@@H](Cc1c[nH]cn1)C(=O)N[C@H](C(=O)NCC(=O)N[C@@H](CCCCNC(=O)c1ccc2c(c1)C1(OC2=O)c2ccc(O)cc2Oc2cc(O)ccc21)C(N)=O)[C@@H](C)O) [Peptide 3] | significantly less | much less | high | greater | excellent; also recorded: very high
